Assay results from PubChem BioAssay AID248 (DTP/NCI, 2004).
Values joined by “and” are separate entries in the source; they are usually repeats but may differ in a detail not shown here. Equal entries are not always repeated. Toxic doses and inconclusive results are not listed. Rule as the data show it: active = T/C of 150% or more; inactive = T/C below 125%.

System: L1210 leukemia ip in BDF1 mice, survival T/C
Assay: NCI In Vivo Anticancer Drug Screen. Data for tumor model L1210 Leukemia (intraperitoneal) in B6D2F1 (BDF1) mice
Settings: endpoint: mean survival time, higher = longer survival
Outline: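 Tumor was transplanted into mice, which were then dosed with test compound or vehicle alone. Survival was recorded for each group, and the treated figure was expressed relative to the control figure.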

[1] = dose: 100.0 mg/kg/injection, schedule: Q04DX003 (ip), vehicle: Klucel (hydroxypropylcellulose) (HPC)
[2] = dose: 200.0 mg/kg/injection, schedule: Q04DX003 (ip), vehicle: Klucel (hydroxypropylcellulose) (HPC)
[3] = dose: 400.0 mg/kg/injection, schedule: Q04DX003 (ip), vehicle: Klucel (hydroxypropylcellulose) (HPC)
[4] = dose: 100.0 mg/kg/injection, schedule: Q01DX001 (ip), vehicle: Klucel (hydroxypropylcellulose) (HPC)
[5] = dose: 50.0 mg/kg/injection, schedule: Q01DX009 (ip), vehicle: saline with Tween-80
[6] = dose: 100.0 mg/kg/injection, schedule: Q01DX009 (ip), vehicle: saline with Tween-80
[7] = dose: 200.0 mg/kg/injection, schedule: Q01DX009 (ip), vehicle: saline with Tween-80
[8] = dose: 100.0 mg/kg/injection, schedule: Q01DX009 (ip), vehicle: saline
[9] = dose: 100.0 mg/kg/injection, schedule: Q04DX003 (ip), vehicle: saline
[10] = dose: 200.0 mg/kg/injection, schedule: Q01DX009 (ip), vehicle: saline
[11] = dose: 200.0 mg/kg/injection, schedule: Q04DX003 (ip), vehicle: saline
[12] = dose: 400.0 mg/kg/injection, schedule: Q01DX009 (ip), vehicle: saline
[13] = dose: 400.0 mg/kg/injection, schedule: Q04DX003 (ip), vehicle: saline
[14] = dose: 25.0 mg/kg/injection, schedule: Q04DX003 (ip), vehicle: saline with Tween-80
[15] = dose: 50.0 mg/kg/injection, schedule: Q04DX003 (ip), vehicle: saline with Tween-80
[16] = dose: 100.0 mg/kg/injection, schedule: Q04DX003 (ip), vehicle: saline with Tween-80

Measured: T/C

O=C(O)CC(C(=O)O)C1CCCC1 (stereo unspecified)
inactive: dose: 75.0 mg/kg/injection, schedule: Q01DX001 (ip), vehicle: saline 102 % of control | dose: 150.0 mg/kg/injection, schedule: Q01DX001 (ip), vehicle: saline 94 % of control | dose: 300.0 mg/kg/injection, schedule: Q01DX001 (ip), vehicle: saline 92 % of control

O=C(Nc1cc([N+](=O)[O-])ccc1F)Oc1ccccc1F
inactive: [1] 102 % of control | [2] 94 % of control | [3] 98 % of control

CC(C)=NNC(=O)CC#N
inactive: [4] 86 % of control | dose: 200.0 mg/kg/injection, schedule: Q01DX001 (ip), vehicle: Klucel (hydroxypropylcellulose) (HPC) 94 % of control

Cc1ccc(NC(=O)OCCOc2ccc(Cl)cc2Cl)cc1[N+](=O)[O-]
inactive: [5] 97 % of control | [6] 104 % of control | [7] 104 % of control

NNc1cc(NN)c2[nH]cnc2n1
inactive: dose: 25.0 mg/kg/injection, schedule: Q01DX001 (ip), vehicle: Klucel (hydroxypropylcellulose) (HPC) 100 % of control | dose: 25.0 mg/kg/injection, schedule: Q04DX003 (ip), vehicle: Klucel (hydroxypropylcellulose) (HPC) 102 % of control | dose: 50.0 mg/kg/injection, schedule: Q01DX001 (ip), vehicle: Klucel (hydroxypropylcellulose) (HPC) 93 % of control | dose: 50.0 mg/kg/injection, schedule: Q04DX003 (ip), vehicle: Klucel (hydroxypropylcellulose) (HPC) 105 % of control | [4] 100 % of control and 108 % of control | [1] 112 % of control

Nc1ncnc(Nc2ccccc2Oc2ccccc2)n1
inactive: dose: 100.0 mg/kg/injection, schedule: Q01DX001 (ip), vehicle: carboxymethylcellulose (CMC) 97 % of control | dose: 200.0 mg/kg/injection, schedule: Q01DX001 (ip), vehicle: carboxymethylcellulose (CMC) 92 % of control | dose: 400.0 mg/kg/injection, schedule: Q01DX001 (ip), vehicle: carboxymethylcellulose (CMC) 86 % of control

N#CC(C#N)=NNc1cccc(Cl)c1
inactive: [2] 96 % of control | [3] 101 % of control

Cc1ccc(NP(=O)(Oc2c(F)c(F)c(F)c(F)c2F)N(CCCl)CCCl)cc1 (stereo unspecified)
inactive: dose: 62.5 mg/kg/injection, schedule: Q01DX001 (ip), vehicle: other 100 % of control | dose: 125.0 mg/kg/injection, schedule: Q01DX001 (ip), vehicle: other 112 % of control | dose: 250.0 mg/kg/injection, schedule: Q01DX001 (ip), vehicle: other 106 % of control | dose: 500.0 mg/kg/injection, schedule: Q01DX001 (ip), vehicle: other 108 % of control

Cc1c(NC(=O)Nc2ccccc2C(F)(F)F)c(=O)n(-c2ccccc2)n1C
inactive: [6] 104 % of control | [7] 98 % of control | dose: 400.0 mg/kg/injection, schedule: Q01DX009 (ip), vehicle: saline with Tween-80 91 % of control

CS(=O)(=O)OCC1CCc2[nH]c3ccccc3c2C1 (stereo unspecified)
inactive: [1] 108 % of control | [2] 97 % of control | [3] 97 % of control

CC(=O)Nc1c(Cl)c(Cl)c2c(c1Cl)Cc1cc(Cl)c(Cl)cc1-2
inactive: dose: 50.0 mg/kg/injection, schedule: Q01DX009 (ip), vehicle: acetone 93 % of control | dose: 50.0 mg/kg/injection, schedule: Q04DX003 (ip), vehicle: acetone 94 % of control | dose: 100.0 mg/kg/injection, schedule: Q01DX009 (ip), vehicle: acetone 95 % of control | dose: 100.0 mg/kg/injection, schedule: Q04DX003 (ip), vehicle: acetone 93 % of control | dose: 200.0 mg/kg/injection, schedule: Q01DX009 (ip), vehicle: acetone 97 % of control | dose: 200.0 mg/kg/injection, schedule: Q04DX003 (ip), vehicle: acetone 93 % of control

CC(C)OC(=O)Nc1cccc(C(F)(F)F)c1
inactive: dose: 100.0 mg/kg/injection, schedule: Q04DX002 (ip), vehicle: Klucel (hydroxypropylcellulose) (HPC) 103 % of control | dose: 200.0 mg/kg/injection, schedule: Q04DX002 (ip), vehicle: Klucel (hydroxypropylcellulose) (HPC) 88 % of control | dose: 400.0 mg/kg/injection, schedule: Q04DX002 (ip), vehicle: Klucel (hydroxypropylcellulose) (HPC) 106 % of control

O=C1OC(c2ccccc2)CC1N1CCOCC1 (stereo unspecified)
inactive: dose: 100.0 mg/kg/injection, schedule: Q01DX009 (ip), vehicle: saline sonified 106 % of control | [1] 98 % of control | dose: 200.0 mg/kg/injection, schedule: Q01DX009 (ip), vehicle: saline sonified 99 % of control | [2] 104 % of control | dose: 400.0 mg/kg/injection, schedule: Q01DX009 (ip), vehicle: saline sonified 97 % of control | [3] 98 % of control

CC1(C)OCC(C2OC3OC(C)(C)OC3C2O)O1 (stereo unspecified)
inactive: dose: 100.0 mg/kg/injection, schedule: Q01DX001 (ip), vehicle: saline 97 % of control | dose: 200.0 mg/kg/injection, schedule: Q01DX001 (ip), vehicle: saline 100 % of control | dose: 400.0 mg/kg/injection, schedule: Q01DX001 (ip), vehicle: saline 100 % of control

COC(CN(C)CC(OC)OC)OC
inactive: [8] 107 % of control | [9] 97 % of control | [10] 96 % of control | [11] 112 % of control | [12] 98 % of control | [13] 105 % of control

COC1OC1(C)C (stereo unspecified)
inactive: [8] 102 % of control | [9] 104 % of control | [10] 103 % of control | [11] 102 % of control | [12] 100 % of control | [13] 98 % of control

c1ccc(-c2nncnn2)cc1
inactive: [14] 97 % of control | [15] 92 % of control | [16] 101 % of control

O=CC1=C(Cl)c2ccccc2SC1
inactive: dose: 100.0 mg/kg/injection, schedule: Q01DX001 (ip), vehicle: other 93 % of control | dose: 200.0 mg/kg/injection, schedule: Q01DX001 (ip), vehicle: other 98 % of control

Cc1cc2ccccc2oc1=O
inactive: dose: 25.0 mg/kg/injection, schedule: Q01DX009 (ip), vehicle: saline with Tween-80 101 % of control | [14] 98 % of control | [5] 114 % of control | [15] 93 % of control | [6] 107 % of control | [16] 86 % of control

CCS(=O)(=O)c1ccc2nnnn2n1
inactive: dose: 6.25 mg/kg/injection, schedule: Q04DX003 (ip), vehicle: saline 103 % of control | dose: 12.5 mg/kg/injection, schedule: Q04DX003 (ip), vehicle: saline 100 % of control | dose: 25.0 mg/kg/injection, schedule: Q04DX003 (ip), vehicle: saline 112 % of control
